In experiment [1] the target is T1, Adenosine receptor A1 (Homo sapiens) (UniProt P30542).
T1 sequence (whole entry): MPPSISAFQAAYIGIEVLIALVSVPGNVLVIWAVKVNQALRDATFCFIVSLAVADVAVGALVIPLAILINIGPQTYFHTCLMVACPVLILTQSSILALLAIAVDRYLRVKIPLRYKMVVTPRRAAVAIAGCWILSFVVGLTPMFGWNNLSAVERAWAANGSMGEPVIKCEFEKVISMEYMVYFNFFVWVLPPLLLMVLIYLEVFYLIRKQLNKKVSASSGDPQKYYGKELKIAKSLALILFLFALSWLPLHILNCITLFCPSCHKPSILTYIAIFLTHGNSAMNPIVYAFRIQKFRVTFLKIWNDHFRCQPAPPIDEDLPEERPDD
Kind of experiment: (§1) Agonist activity at human adenosine A1 receptor expressed in CHO cells assessed as Gi-mediated inhibition of forskolin-stimulated SPAP secretion incubated for 10 mins prior to forskolin challenge measured after 5 hrs by spectrophotometry. It counts as functional, cell-based.

In experiment [2] the target is T2, Adenosine receptor A1 (Homo sapiens, UniProt P30542).
T2 sequence (P30542 whole entry): T1 sequence (whole entry)
The description is as §1. It counts as functional, cell-based.

For experiment [3], the target named is T1, Adenosine receptor A1 (Homo sapiens). Put plainly: (§2) Agonist activity at human adenosine A1 receptor expressed in CHO cells assessed as Gs-mediated activation of forskolin-stimulated SPAP secretion incubated for 10 mins prior to forskolin challenge measured after 5 hrs by spectrophotometry. It counts as functional, cell-based.
The target is the same in experiment [4]. Kind of experiment: Agonist activity at human adenosine A1 receptor expressed in CHO cells assessed as Gi-mediated inhibition of forskolin-stimulated SPAP secretion incubated for 10 mins prior to forskolin challenge measured after 5 hrs in presence of 1 uM adenosine A1 receptor antagonist XAC by spectrophotometry. It counts as functional, cell-based.
The target is the same in experiment [5]. Put plainly: Agonist activity at human adenosine A1 receptor expressed in CHO cells assessed as Gs-mediated activation of forskolin-stimulated SPAP secretion up to 10^-5 M incubated for 10 mins prior to forskolin challenge measured after 5 hrs by spectrophotometry. It counts as functional, cell-based.
Experiment [6] shares this target. Put plainly: Binding affinity to human adenosine A1 receptor expressed in CHO cells at 100 nM after 30 mins by confocal microscopy in presence of DPCPX. It counts as cell-based.
Experiment [7] has the same target. Kind of experiment: Binding affinity to human adenosine A1 receptor expressed in CHO cells at 100 nM after 30 mins by confocal microscopy. It counts as cell-based.
The target of experiment [8] is T2, Adenosine receptor A1. Described as §2. It counts as functional, cell-based.
For experiment [9], the target named is T1, Adenosine receptor A1 (Homo sapiens). Put plainly: (§3) Displacement of [3H]DPCPX from human adenosine A1 receptor expressed in CHO cells after 2 hrs by scintillation counting analysis relative to control. It counts as cell-based.
The target in experiment [10] is T2, Adenosine receptor A1. The description is as §3. It counts as cell-based.
Experiment [11] has as its target T1, Adenosine receptor A1 (Homo sapiens). Put plainly: Binding affinity to human adenosine A1 receptor expressed in CHO cells assessed as internalization at 100 nM after 30 mins by confocal microscopy. It counts as cell-based.

Activity calls are given as the source filed them. The rule behind the calls is not given here.

The term inhibition denotes the relative decrease from the control value, in per cent. As usually defined, the IC50 is the concentration that gives 50% inhibition. In the case of `CCNC(=O)[C@H]1O[C@@H](n2cnc3c(NCCOCCOCCOCCNC(=O)COc4ccc(/C=C/C5=[N+]6C(=Cc7ccc(-c8cccs8)n7[B-]6(F)F)C=C5)cc4)ncnc32)[C@H](O)[C@@H]1O`, in experiment [1], the inhibition amounted to 99%. The IC50 at Adenosine receptor A1 [2] is 0.191 µM. In addition, the outcome in [3] and in experiment [4] was inactive.

For the compound `CCNC(=O)[C@H]1O[C@@H](n2cnc3c(NCCCCCCCCNC(=O)COc4ccc(/C=C/C5=[N+]6C(=Cc7ccc(-c8cccs8)n7[B-]6(F)F)C=C5)cc4)ncnc32)[C@H](O)[C@@H]1O`, the IC50 at Adenosine receptor A1 [2] was 0.0269 µM. The result in experiment [3], in [5], in [4] and in [6] was inactive.

Take `CCNC(=O)[C@H]1O[C@@H](n2cnc3c(NCCOCCOCCNC(=O)COc4ccc(/C=C/C5=[N+]6C(=Cc7ccc(-c8cccs8)n7[B-]6(F)F)C=C5)cc4)ncnc32)[C@H](O)[C@@H]1O`: the inhibition in [1] stood at 102%. Moreover, the IC50 at Adenosine receptor A1 [2] was 0.0741 µM. The outcome in [3], in experiment [4] and in experiment [6] was inactive. Besides, the outcome in [7] was Active.

Usually EC50 stands for the concentration needed to bring the measured effect to its halfway point. As a reminder, the Ki is a measure of affinity in units of concentration, obtained from inhibition or displacement. A high value points to a looser hold on the target. With `CCNC(=O)[C@H]1O[C@@H](n2cnc3c(NCCCNC(=O)COc4ccc(/C=C/C5=[N+]6C(=Cc7ccc(-c8cccs8)n7[B-]6(F)F)C=C5)cc4)ncnc32)[C@H](O)[C@@H]1O`, the inhibition in [1] amounted to 97%. Moreover, the IC50 at Adenosine receptor A1 [2] is 0.00049 µM. Also, the Activity in experiment [3] is 188%; in [9], 59%. Further, the EC50 at Adenosine receptor A1 [8] was 0.263 µM. For the same compound, the outcome in experiment [4] and in experiment [6] was inactive. Moreover, the Ki at Adenosine receptor A1 [10] is 0.417 µM. In [7], the result was Active.

Turning to `CCNC(=O)[C@H]1O[C@@H](n2cnc3c(NCCCCCCCCCCCNC(=O)COc4ccc(/C=C/C5=[N+]6C(=Cc7ccc(-c8cccs8)n7[B-]6(F)F)C=C5)cc4)ncnc32)[C@H](O)[C@@H]1O`, the half-maximal inhibitory concentration (IC50) at Adenosine receptor A1 [2] was 0.129 µM. The outcome in [3], in experiment [5], in experiment [4] and in [6] was inactive. Moreover, the result in experiment [11] was Active.

For `CCNC(=O)[C@H]1O[C@@H](n2cnc3c(NCCNC(=O)COc4ccc(/C=C/C5=[N+]6C(=Cc7ccc(-c8cccs8)n7[B-]6(F)F)C=C5)cc4)ncnc32)[C@H](O)[C@@H]1O`, the inhibition in experiment [1] was 100%. Besides, at Adenosine receptor A1 [2], the IC50 is 0.00204 µM. Also, the Activity in [3] is 64%; in [9], 50%. On Adenosine receptor A1 [8], the EC50 was 0.234 µM. Moreover, the outcome in [4] and in [6] was inactive. Also, the affinity at Adenosine receptor A1 [10], expressed as Ki, was 0.363 µM. The result in experiment [7] was Active.

For `CCNC(=O)[C@H]1O[C@@H](n2cnc3c(NCCCCNC(=O)COc4ccc(/C=C/C5=[N+]6C(=Cc7ccc(-c8cccs8)n7[B-]6(F)F)C=C5)cc4)ncnc32)[C@H](O)[C@@H]1O`, the inhibition in experiment [1] stood at 101%. Also, the IC50 on Adenosine receptor A1 [2] was 0.00525 µM. The Activity in experiment [3] was found to be 155%; in experiment [9], 43%. For the same compound, on Adenosine receptor A1 [8], the EC50 is 2.34 µM. The outcome in [4] and in [6] was inactive. The same compound gave a Ki on Adenosine receptor A1 [10] of 0.263 µM.

With `CCNC(=O)[C@H]1O[C@@H](n2cnc3c(N)ncnc32)[C@H](O)[C@@H]1O`, the inhibition in [1] amounted to 105%. In addition, the Activity was 177% in experiment [3] and 73% in experiment [9]. Besides, in experiment [4], the result was inactive.

These data come from ChEMBL document CHEMBL3217410, “New potent, short-linker BODIPY-630/650TM labelled fluorescent adenosine receptor agonists” (Medchemcomm, 2012).
